These results are taken from patent US20110269743A1, “PHENYLTHIOPHENYLDIHYDROBENZOTHIAZEPINE INHIBITORS OF STORE OPERATED CALCIUM RELEASE” (CalciMedica, Inc, priority 2008, published 2011).

The subject of the first assay is Jurkat cells and colon cancer cells.
Assay: not given
As to conditions: cited from earlier work.
Turning to `Cc1nnsc1C(=O)Nc1ccc(-n2nc(C(F)(F)F)cc2C(F)(F)F)cc1` [BTP-2], the “inhibition of SOCE and proliferation” value was “inhibits SOCE and proliferation”.

In the next assay the test system is JR251 or RBL cells. The assay is described as follows: Fluorescence-based store-operated calcium entry assay, IC50 in JR251 or RBL cells. In kind it is cell-based. As to conditions: in either JR251 or RBL cells, or both. The protocol:
The day prior to performing the assay, RBL-2H3 cells are plated in 50 μL of complete medium in a 384 well plate. Cells are grown at 37° C./6% CO2 overnight and grow to 50-60% confluence by the next day. On the assay day, 1.5 μM Fluo-4-AM dye (Invitrogen) in complete medium is added and incubated for 1 hour at RT. Cells are washed twice in Ca^2+-free HBSS buffer and 35 μL Ca^2+-free HBSS buffer is added to each well. 10 μL of a test compound prepared in a Ca^2+-free HBSS solution at 4.5× of the desired concentration is added to a well and incubated for 5 minutes at RT. 10 μL of thapsigargin prepared in a Ca^2+-free HBSS solution at 5.5× of the desired concentration (5.5 uM) is added to each well and incubated for an additional 25 minutes. The initial baseline fluorescence signal is measured with a FLIPR^384 (Molecular Devices) plate reader. 5 μL of 12× calcium in HBSS (12 mM) is added and changes in cellular fluorescence are measured with the FLIPR^384 plate reader. In each well, the change in the fluorescent signal as a function of time due to calcium entry into the cell is determined by calculating the difference between the fluorescent signal measured 7 seconds after calcium addition and the initial baseline fluorescence signal at time zero (t=0). This parameter is designated Upslope. The IC50 value is calculated as the concentration at which 50% of the Upslope is inhibited.
The day prior to performing the assay, Jurkat E6-1 cells are seeded at a density of 2 million cells/mL in complete medium in a T-175 flask. Cells are grown at 37° C./6% CO2 overnight. On the following day, 1.5 μM Fluo-4-AM dye (Invitrogen) in complete medium is added and incubated for 1 hour at RT. Cells are harvested, washed twice in Ca^2+-free HBSS buffer and plated in 35 μL Ca^2+-free HBSS buffer in a 384 well plate. 10 μL of a test compound prepared in a Ca^2+-free HBSS solution at 4.5× of the desired concentration is added to a well and incubated for 5 minutes at RT. 10 μL of thapsigargin prepared in a Ca^2+-free HBSS solution at 5.5× of the desired concentration (5.5 uM) is added to each well and incubated for an additional 25 minutes. The initial baseline fluorescence signal is measured with a FLIPR^384 (Molecular Devices) plate reader. 5 μL of 12× calcium in HBSS (12 mM) is added and changes in cellular fluorescence are measured with the FLIPR^384 plate reader. In each well, the change in the fluorescent signal as a function of time due to calcium entry into the cell is determined by calculating the difference between the fluorescent signal measured 7 seconds after calcium addition and the initial baseline fluorescence signal at time zero (t=0). This parameter is designated Upslope. The IC50 value is calculated as the concentration at which 50% of the Upslope is inhibited.
As for `Clc1ccc(C2CC(c3ccco3)=Nc3ccccc3S2)c(Cl)c1` (centres unmarked) [(E)-2-(2,4-dichlorophenyl)-4-(furan-2-yl)-2,3-dihydrobenzo[b][1,4]thiazepine], the IC50 (in general, the concentration at which inhibition is half-maximal) is less than 10 µM.

On to `COc1ccc(C2CC(c3ccco3)=Nc3ccccc3S2)c(OC)c1` (centres unmarked) [(E)-2-(2,4-dimethoxyphenyl)-4-(furan-2-yl)-2,3-dihydrobenzo[b][1,4]thiazepine], for which the IC50 was less than 10 µM.

As to `Fc1ccccc1C1CC(c2ccco2)=Nc2ccccc2S1` (centres unmarked) [(E)-2-(2-fluorophenyl)-4-(furan-2-yl)-2,3-dihydrobenzo[b][1,4]thiazepine], the IC50 was less than 10 µM.

As for `COc1ccc(C2CC(c3cccs3)=Nc3ccccc3S2)cc1OC` (centres unmarked) [(E)-2-(3,4-dimethoxyphenyl)-4-(thiophen-2-yl)-2,3-dihydrobenzo[b][1,4]thiazepine], the IC50 was less than 10 µM.

Consider `FC(F)Oc1ccc(C2CC(c3ccco3)=Nc3ccccc3S2)cc1` (centres unmarked) [(E)-2-(4-(difluoromethoxy)phenyl)-4-(furan-2-yl)-2,3-dihydrobenzo[b][1,4]thiazepine], for which the IC50 is less than 10 µM.

As to `FC(F)Oc1ccc(C2CC(c3cccs3)=Nc3ccccc3S2)cc1` (centres unmarked) [(E)-2-(4-(difluoromethoxy)phenyl)-4-(thiophen-2-yl)-2,3-dihydrobenzo[b][1,4]thiazepine], the concentration for half-maximal inhibition (IC50) is less than 10 µM.

For the compound `Fc1ccc(C2CC(c3ccco3)=Nc3ccccc3S2)cc1` (centres unmarked) [(E)-2-(4-fluorophenyl)-4-(furan-2-yl)-2,3-dihydrobenzo[b][1,4]thiazepine], the half-inhibitory concentration (IC50) was less than 10 µM.

On to `Fc1ccc(C2CC(c3cccs3)=Nc3ccccc3S2)cc1` (centres unmarked) [(E)-2-(4-fluorophenyl)-4-(thiophen-2-yl)-2,3-dihydrobenzo[b][1,4]thiazepine], for which the IC50 was less than 10 µM.

Consider `FC(F)(F)c1ccc(C2CC(c3ccco3)=Nc3ccccc3S2)cc1` (centres unmarked) [(E)-4-(furan-2-yl)-2-(4-(trifluoromethyl)phenyl)-2,3-dihydrobenzo[b][1,4]thiazepine], for which the IC50 is less than 10 µM.

As to `COc1ccc(C2CC(c3ccco3)=Nc3ccccc3S2)cc1` (centres unmarked) [(E)-4-(furan-2-yl)-2-(4-methoxyphenyl)-2,3-dihydrobenzo[b][1,4]thiazepine], the half-maximal inhibitory concentration (IC50) was less than 10 µM.

Consider `Cc1ccc(C2CC(c3ccco3)=Nc3ccccc3S2)cc1` (centres unmarked) [(E)-4-(furan-2-yl)-2-p-tolyl-2,3-dihydrobenzo[b][1,4]thiazepine], for which the 50% inhibitory concentration (IC50) is less than 10 µM.

As to `Cc1ccc(C2CC(c3cccs3)=Nc3ccccc3S2)cc1` (centres unmarked) [(E)-4-(thiophen-2-yl)-2-p-tolyl-2,3-dihydrobenzo[b][1,4]thiazepine], the half-inhibitory concentration (IC50) is less than 10 µM.

The target of a further assay is STIM1 and Orai1 in HEK293 cells (Homo sapiens, UniProt Q96D31).
Chain of STIM1 and Orai1 in HEK293 cells (Q96D31 whole entry): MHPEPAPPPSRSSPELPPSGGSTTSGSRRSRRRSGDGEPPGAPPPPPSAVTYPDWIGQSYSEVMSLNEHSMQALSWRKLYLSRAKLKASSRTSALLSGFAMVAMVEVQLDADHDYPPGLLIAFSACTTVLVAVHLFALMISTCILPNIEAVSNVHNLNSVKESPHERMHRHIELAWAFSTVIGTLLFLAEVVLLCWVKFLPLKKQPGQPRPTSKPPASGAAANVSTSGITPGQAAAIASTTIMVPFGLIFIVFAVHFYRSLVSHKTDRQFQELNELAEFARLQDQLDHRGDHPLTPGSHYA
Assay: not given
As to conditions: HEK293 cells coexpressing STIM1 and Orai1; cited from earlier work.
For the compound `NCCOB(c1ccccc1)c1ccccc1` [2-aminoethoxydiphenylborate], the “block of store-operated Ca2+ entry” value was “completely blocked”.
